Assay results taken from patent US20260159486A1, “BENZO[H]QUINAZOLINE-4-AMINE DERIVATIVES FOR THE TREATMENT OF CANCER” (Redona Therapeutics, Inc., priority 2021, published 2026).
pIC50: −log10 of the molar value. One block for each molecule: values may come before it.

Key:
recombinant human CLK3 = molecular target: T1, recombinant human CLK3 (Homo sapiens, UniProt P49761); experiment: CLK3 kinase assay (LANCE Ultra); assay type: biochemical; details: CLK3 0.5 nM, ATP 300 μM, 3 hours at 30° C.
T1 construct: purchased Thermo Fisher Scientific PV3826
T1 sequence (P49761 whole entry): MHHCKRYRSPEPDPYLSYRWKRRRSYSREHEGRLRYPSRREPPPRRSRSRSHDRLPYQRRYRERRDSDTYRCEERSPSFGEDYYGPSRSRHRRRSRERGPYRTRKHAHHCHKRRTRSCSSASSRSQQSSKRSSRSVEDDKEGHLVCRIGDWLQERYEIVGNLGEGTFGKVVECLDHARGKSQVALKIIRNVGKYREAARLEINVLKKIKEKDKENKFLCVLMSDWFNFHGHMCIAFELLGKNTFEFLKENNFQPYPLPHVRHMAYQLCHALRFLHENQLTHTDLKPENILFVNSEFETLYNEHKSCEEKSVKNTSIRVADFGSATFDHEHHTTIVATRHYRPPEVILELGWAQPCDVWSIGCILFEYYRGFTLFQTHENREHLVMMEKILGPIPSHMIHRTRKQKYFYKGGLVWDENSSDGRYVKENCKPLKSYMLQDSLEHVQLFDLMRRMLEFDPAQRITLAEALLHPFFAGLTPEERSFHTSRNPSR
Procedure: CLK3 kinase activity was measured using the LANCE® Ultra technology (PerkinElmer) essentially as recommended by the supplier. Briefly, 2.5 μL of test sample at 4× the desired final concentration in 4% DMSO were dispensed into white, low volume, round bottom, 384 well plates (Corning, cat. no. 4512). 5 μL of a mixture containing recombinant human CLK3 (Thermo Fisher Scientific, cat. no. PV3826) and the labeled peptide substrate ULight™-CREBtide (PerkinElmer, cat. no. TRF0107) prepared in 1.33× kinase buffer (Thermo Fisher Scientific, cat. no. PV3189) were then added. Finally, the reactions were started by adding 2.5 μL of a 4× solution of ATP in kinase buffer. The plates were sealed with adhesive foils and incubated for 3 hours at 30° C. in the dark. The final concentrations of CLK3, ULight™-CREBtide, and ATP were 0.5 nM, 50 nM, and 300 μM, respectively. 5 μL of 40 mM EDTA were then added to terminate the reactions. The Eu-anti-phospho-CREB antibody (PerkinElmer, cat. no. TRF0200) diluted in LANCE® detection buffer (PerkinElmer, cat. no. CR97) was then added to a final concentration of 2 nM and the reactions were incubated for 1 hour at room temperature in the dark. The signals were measured using a Synergy 4 reader (BioTek) with a 320/80 nm filter for the excitation and 620/10 nm and 665/8 nm filters for the donor and acceptor emission, respectively. Relative inhibition values were calculated by normalizing the raw data using solvent control wells (0% inhibition) and wells that received no ATP (100% inhibition). IC50 values were calculated by fitting the concentration-response data to a sigmoidal 4-parameter logistic model. IC50 values for CLK3 are determined from duplicate measurements at ten different concentrations (serial 1:3 dilutions).

MDA-MB-231 cells = experiment: MDA-MB-231 proliferation assay; assay type: cell-based; details: Homo sapiens, MDA-MB-231, 72 h, YO-PRO-1 Iodide readout
From the text: (§1) MDA-MB-231 and CAL-51 Proliferation Assay
(§2) Cells (MDA-MB-231 (American Type Culture Collection (ATCC), #HTB-26) or CAL-51 (Deutsche Sammlung von Mikroorganismen und Zellkulturen (DSMZ), #ACC302) as applicable) were cultivated in DMEM High Glucose (4.5 g/L) with L-Glutamine (BioConcept, cat. no. 1-26F03-I) supplemented with 1% Na-pyruvate (Sigma, cat. no. S8636), 1% Penicillin-Streptomycin (BioConcept, cat. no. 4-01F00H), and 10% FBS (Sigma, cat. no. F9665) using standard techniques. Cells were seeded in black, clear-bottom 384 well plates for tissue culture (Greiner Bio-One, cat. no. 781091) at a density of 750 cells per well in 20 μL medium and the plates were incubated overnight at 37° C. with 5% CO2 prior to treatment. Experimental compounds were serially diluted in DMSO to 200× the desired final concentrations. The solutions were then diluted 1:40 with culture medium and 5 μL aliquots were mixed into the wells containing the cells. The final concentration of DMSO was 0.5%. The plates were incubated for 72 hours and cell numbers were then measured using YO-PRO™-1 Iodide (ThermoFisher Scientific, cat. no. Y3603) essentially as recommended by the manufacturer. Briefly, a 12.5 μM solution of YO-PRO™_1 Iodide in 5× YO—PRO buffer (100 mM Na-citrate, 130 mM NaCl, pH 4) was combined with an equal volume of lysis buffer (0.6% NP-40, 30 mM EDTA, 30 mM EGTA, 0.33× YO—PRO buffer) and 12.5 μL of the mixture were dispensed into each well. The plates were incubated at room temperature in the dark for 30 minutes. Fluorescence intensity signals were then measured on a Synergy 4 reader (BioTek) using 485/20 nm and 530/25 nm filters for the excitation and emission, respectively. Relative proliferation values were calculated by normalizing the raw data using DMSO-treated cells (100% proliferation) and the signals obtained from cells that were evaluated at the time of compound addition (0% proliferation). The concentration-response data were fitted to a sigmoidal 4-parameter logistic model with the maximum constrained to 100%. GI50 values were calculated from the curves as the compound concentrations reducing proliferation to 50%.

CAL-51 cells = experiment: CAL-51 proliferation assay; assay type: cell-based; details: Homo sapiens, CAL-51, 72 h, YO-PRO-1 Iodide readout
From the text: as §1, §2

SMILES: COc1ccc2c(c1N1CC(CO)C1)CC(C)(C)c1c(N)ncnc1-2 [Example 28, [1-(4-amino-8-methoxy-5,5-dimethyl-6H-benzo[h]quinazolin-7-yl)azetidin-3-yl]methanol]
pIC50 (recombinant human CLK3): 6.00 to 7.00 | GI50 (MDA-MB-231 cells): 100 to 2000 nM | GI50 (CAL-51 cells): 100 to 2000 nM

SMILES: CN(CC1CCOCC1)c1c(O[C@H]2CC[C@@H](N)CC2)ccc2c1CC(C)(C)c1c(N)ncnc1-2 [Example 29, 8-(cis-4-aminocyclohexoxy)-N7,5,5-trimethyl-N7-(tetrahydropyran-4-ylmethyl)-6H-benzo[h]quinazoline-4,7-diamine]
pIC50 (recombinant human CLK3): 6.00 to 7.00 | GI50 (MDA-MB-231 cells): 100 to 2000 nM | GI50 (CAL-51 cells): 100 to 2000 nM

SMILES: CC1(C)C(=O)c2c(ccc(O[C@H]3CC[C@H](N)CC3)c2N)-c2ncnc(N)c21 [Example 34, 4,7-diamino-8-(trans-4-aminocyclohexoxy)-5,5-dimethyl-benzo[h]quinazolin-6-one]
pIC50 (recombinant human CLK3): 6.00 to 7.00 | GI50 (MDA-MB-231 cells): 100 to 2000 nM | GI50 (CAL-51 cells): 100 to 2000 nM

SMILES: CCOCCN(C)c1c(O[C@H]2CC[C@H](N)CC2)ccc2c1CC(C)(C)c1c(N)ncnc1-2 [Example 36, 8-(trans-4-aminocyclohexoxy)-N7-(2-ethoxyethyl)-N7,5,5-trimethyl-6H-benzo[h]quinazoline-4,7-diamine]
pIC50 (recombinant human CLK3): 6.00 to 7.00 | GI50 (MDA-MB-231 cells): 100 to 2000 nM | GI50 (CAL-51 cells): 100 to 2000 nM

SMILES: CN(CCNS(C)(=O)=O)c1c(O[C@H]2CC[C@H](N)CC2)ccc2c1CC(C)(C)c1c(N)ncnc1-2 [Example 39, N-[2-[[4-amino-8-(trans-4-aminocyclohexoxy)-5,5-dimethyl-6H-benzo[h]quinazolin-7-yl]-methyl-amino]ethyl]methanesulfonamide]
pIC50 (recombinant human CLK3): 6.00 to 7.00 | GI50 (MDA-MB-231 cells): > 2000 nM | GI50 (CAL-51 cells): 100 to 2000 nM

SMILES: CN(C(=O)CO)c1c(O[C@H]2CC[C@H](N)CC2)ccc2c1CC(C)(C)c1c(N)ncnc1-2 [Example 41, N-[4-amino-8-(trans-4-aminocyclohexoxy)-5,5-dimethyl-6H-benzo[h]quinazolin-7-yl]-2-hydroxy-N-methyl-acetamide]
pIC50 (recombinant human CLK3): 6.00 to 7.00 | GI50 (MDA-MB-231 cells): > 2000 nM | GI50 (CAL-51 cells): > 2000 nM

SMILES: CC1(C)Cc2c(ccc(O[C@H]3CC[C@H](N)CC3)c2NC(=O)CO)-c2ncnc(N)c21 [Example 45, N-[4-amino-8-(trans-4-aminocyclohexoxy)-5,5-dimethyl-6H-benzo[h]quinazolin-7-yl]-2-hydroxy-acetamide]
pIC50 (recombinant human CLK3): 6.00 to 7.00 | GI50 (MDA-MB-231 cells): > 2000 nM | GI50 (CAL-51 cells): > 2000 nM

SMILES: CN(CCOC(F)(F)F)c1c(O[C@H]2CC[C@H](N)CC2)ccc2c1CC(C)(C)c1c(N)ncnc1-2 [Example 47, 8-(trans-4-aminocyclohexoxy)-N7,5,5-trimethyl-N7-[2-(trifluoromethoxy)ethyl]-6H-benzo[h]quinazoline-4,7-diamine]
pIC50 (recombinant human CLK3): 7.00 to 7.52 | GI50 (MDA-MB-231 cells): 100 to 2000 nM | GI50 (CAL-51 cells): < 100 nM

Continued, in another order:

pIC50 (recombinant human CLK3): 7.00 to 7.52 | GI50 (MDA-MB-231 cells): 100 to 2000 nM
SMILES: COc1ccc2c(c1NCC(O)CO)CC(C)(C)c1c(N)ncnc1-2 (stereo not drawn) [Example 27, 3-[(4-amino-8-methoxy-5,5-dimethyl-6H-benzo[h]quinazolin-7-yl)amino]propane-1,2-diol]
GI50 (CAL-51 cells): 100 to 2000 nM

pIC50 (recombinant human CLK3): 7.00 to 7.52 | GI50 (MDA-MB-231 cells): 100 to 2000 nM
SMILES: CSCCN(C)c1c(O[C@H]2CC[C@@H](N)CC2)ccc2c1CC(C)(C)c1c(N)ncnc1-2 [Example 31, 8-(cis-4-aminocyclohexoxy)-N7,5,5-trimethyl-N7-(2-methylsulfanylethyl)-6H-benzo[h]quinazoline-4,7-diamine]
GI50 (CAL-51 cells): < 100 nM

pIC50 (recombinant human CLK3): > 7.52 | GI50 (MDA-MB-231 cells): > 2000 nM
SMILES: CN(CCS(C)(=O)=O)c1c(O[C@H]2CC[C@@H](N)CC2)ccc2c1CC(C)(C)c1c(N)ncnc1-2 [Example 32, 8-(cis-4-aminocyclohexoxy)-N7,5,5-trimethyl-N7-(2-methylsulfonylethyl)-6H-benzo[h]quinazoline-4,7-diamine]
GI50 (CAL-51 cells): > 2000 nM

pIC50 (recombinant human CLK3): > 7.52 | GI50 (MDA-MB-231 cells): 100 to 2000 nM
SMILES: CN(CC#N)c1c(O[C@H]2CC[C@H](N)CC2)ccc2c1CC(C)(C)c1c(N)ncnc1-2 [Example 33, 2-[[4-amino-8-(trans-4-aminocyclohexoxy)-5,5-dimethyl-6H-benzo[h]quinazolin-7-yl]-methyl-amino]acetonitrile]
GI50 (CAL-51 cells): < 100 nM

pIC50 (recombinant human CLK3): 7.00 to 7.52 | GI50 (MDA-MB-231 cells): 100 to 2000 nM
SMILES: CC1(C)Cc2c(ccc(O[C@H]3CC[C@H](N)CC3)c2NCC#N)-c2ncnc(N)c21 [Example 35, 2-[[4-amino-8-(trans-4-aminocyclohexoxy)-5,5-dimethyl-6H-benzo[h]quinazolin-7-yl]amino]acetonitrile]
GI50 (CAL-51 cells): 100 to 2000 nM

pIC50 (recombinant human CLK3): 7.00 to 7.52 | GI50 (MDA-MB-231 cells): > 2000 nM
SMILES: CC(=O)NCCN(C)c1c(O[C@H]2CC[C@H](N)CC2)ccc2c1CC(C)(C)c1c(N)ncnc1-2 [Example 38, N-[2-[[4-amino-8-(trans-4-aminocyclohexoxy)-5,5-dimethyl-6H-benzo[h]quinazolin-7-yl]-methyl-amino]ethyl]acetamide]
GI50 (CAL-51 cells): 100 to 2000 nM

pIC50 (recombinant human CLK3): 7.00 to 7.52 | GI50 (MDA-MB-231 cells): > 2000 nM
SMILES: CC1(C)Cc2c(ccc(O[C@H]3CC[C@H](N)CC3)c2NS(=O)(=O)CCO)-c2ncnc(N)c21 [Example 42, N-[4-amino-8-(trans-4-aminocyclohexoxy)-5,5-dimethyl-6H-benzo[h]quinazolin-7-yl]-2-hydroxy-ethanesulfonamide]
GI50 (CAL-51 cells): > 2000 nM

pIC50 (recombinant human CLK3): 7.00 to 7.52 | GI50 (MDA-MB-231 cells): 100 to 2000 nM
SMILES: CN(CCC(F)(F)F)c1c(O[C@H]2CC[C@H](N)CC2)ccc2c1CC(C)(C)c1c(N)ncnc1-2 [Example 43, 8-(trans-4-aminocyclohexoxy)-N7,5,5-trimethyl-N7-(3,3,3-trifluoropropyl)-6H-benzo[h]quinazoline-4,7-diamine]
GI50 (CAL-51 cells): 100 to 2000 nM

pIC50 (recombinant human CLK3): > 7.52 | GI50 (MDA-MB-231 cells): 100 to 2000 nM
SMILES: CN(c1c(O[C@H]2CC[C@H](N)CC2)ccc2c1CC(C)(C)c1c(N)ncnc1-2)S(=O)(=O)CCO [Example 44, N-[4-amino-8-(4-trans-aminocyclohexoxy)-5,5-dimethyl-6H-benzo[h]quinazolin-7-yl]-2-hydroxy-N-methyl-ethanesulfonamide]
GI50 (CAL-51 cells): 100 to 2000 nM

pIC50 (recombinant human CLK3): > 7.52 | GI50 (MDA-MB-231 cells): < 100 nM
SMILES: CN(CC1(C#N)CC1)c1c(O[C@H]2CC[C@H](N)CC2)ccc2c1CC(C)(C)c1c(N)ncnc1-2 [Example 48, 1-[[[4-amino-8-(trans-4-aminocyclohexoxy)-5,5-dimethyl-6H-benzo[h]quinazolin-7-yl]-methyl-amino]methyl]cyclopropanecarbonitrile]
GI50 (CAL-51 cells): < 100 nM

pIC50 (recombinant human CLK3): > 7.52 | GI50 (MDA-MB-231 cells): < 100 nM
SMILES: CC1(C)Cc2c(ccc(O[C@H]3CC[C@H](N)CC3)c2N(CCC#N)C2CC2)-c2ncnc(N)c21 [Example 51, 3-[[4-amino-8-(trans-4-aminocyclohexoxy)-5,5-dimethyl-6H-benzo[h]quinazolin-7-yl]-cyclopropyl-amino]propanenitrile]
GI50 (CAL-51 cells): < 100 nM

pIC50 (recombinant human CLK3): > 7.52 | GI50 (MDA-MB-231 cells): < 100 nM
SMILES: CN(CCC#N)c1c(O[C@H]2CC[C@H](N3CCOCC3)CC2)ccc2c1CC(C)(C)c1c(N)ncnc1-2 [Example 52, 3-[[4-amino-5,5-dimethyl-8-(trans-4-morpholinocyclohexoxy)-6H-benzo[h]quinazolin-7-yl]-methyl-amino]propanenitrile]
GI50 (CAL-51 cells): < 100 nM
